According to patent publication US11203576B2, “Aurora kinase and Janus kinase inhibitors for prevention of graft versus host disease” (H. LEE MOFFITT CANCER CENTER AND RESEARCH INSTITUTE, INC., priority 2016, dated 2021):

Assays:
[1] = system: 5′ AMP activated protein kinase (AMPK); experiment: Kinase target screen, panel of 140 kinases; assay type: biochemical
Experimental: (§1) Allogeneic mixed leukocyte reactions (alloMLRs) are standard assays used to assess human T cell proliferation against polyclonal or antigen-specific stimuli. In alloMLRs consisting of human T cells and allogeneicmonocyte-derived dendritic cells (DCs), the JAK2 inhibitor TG101348 reduced alloreactive T cell proliferation at concentrations of 350 nM and greater as previously reported (FIG. 9A). […] Synergistic suppression of T cells allostimulated by DCs was achieved when TG101348 and alisertib were added together at a ratio of 1:5, respectively, with a calculated combination index (CI) of <1 using the Chou-Talalay method (FIG. 9A). […] The chemical analogs AJI-214 and AJI-100 were designed and synthesized at the Moffitt Cancer Center and shown to inhibit Aurora kinase A and JAK2 with similar potency. […] Because AJI-100 is tolerated in mouse models, a kinase target screen was performed on AJI-100 to verify its activity against Aurora kinase A and JAK2 among a panel of 140 kinases.

[2] = target: T1, Aurora kinase A (Homo sapiens, UniProt O14965); experiment: Kinase target screen, panel of 140 kinases; assay type: biochemical
T1 sequence (O14965 1-403): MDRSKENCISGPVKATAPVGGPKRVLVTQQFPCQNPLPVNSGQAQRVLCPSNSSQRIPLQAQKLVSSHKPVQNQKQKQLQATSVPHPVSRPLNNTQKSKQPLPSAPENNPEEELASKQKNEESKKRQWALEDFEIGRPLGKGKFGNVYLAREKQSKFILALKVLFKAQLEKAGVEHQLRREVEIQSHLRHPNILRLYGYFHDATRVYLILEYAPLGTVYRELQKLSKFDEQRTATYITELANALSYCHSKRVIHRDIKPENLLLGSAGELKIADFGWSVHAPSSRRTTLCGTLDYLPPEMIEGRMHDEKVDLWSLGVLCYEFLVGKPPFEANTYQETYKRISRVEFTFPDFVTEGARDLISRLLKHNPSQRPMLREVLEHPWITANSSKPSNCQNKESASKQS
Experimental: as §1

[3] = target: Aurora kinase B (Homo sapiens, UniProt Q96GD4); experiment: Kinase target screen, panel of 140 kinases; assay type: biochemical; conditions: compared with alisertib
Experimental: as §1

[4] = target: JAK2 (Homo sapiens, UniProt O60674); experiment: Kinase target screen, panel of 140 kinases; assay type: biochemical
Experimental: as §1

[5] = Solubility; assay type: physicochemical; conditions: relative to the ortho-chloro analogue
[6] = Bioavailability; conditions: in vivo

Aurora kinase B, sequence (Q96GD4 whole entry): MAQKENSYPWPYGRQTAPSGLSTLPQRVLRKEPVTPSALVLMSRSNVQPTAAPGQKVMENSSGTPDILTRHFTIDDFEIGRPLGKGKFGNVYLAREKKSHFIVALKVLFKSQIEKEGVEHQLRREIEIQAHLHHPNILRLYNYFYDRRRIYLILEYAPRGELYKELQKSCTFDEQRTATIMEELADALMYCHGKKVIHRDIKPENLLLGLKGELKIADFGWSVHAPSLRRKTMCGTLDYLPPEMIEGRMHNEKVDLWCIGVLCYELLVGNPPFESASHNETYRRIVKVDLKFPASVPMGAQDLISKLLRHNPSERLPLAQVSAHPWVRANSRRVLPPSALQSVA
JAK2, sequence (O60674 whole entry): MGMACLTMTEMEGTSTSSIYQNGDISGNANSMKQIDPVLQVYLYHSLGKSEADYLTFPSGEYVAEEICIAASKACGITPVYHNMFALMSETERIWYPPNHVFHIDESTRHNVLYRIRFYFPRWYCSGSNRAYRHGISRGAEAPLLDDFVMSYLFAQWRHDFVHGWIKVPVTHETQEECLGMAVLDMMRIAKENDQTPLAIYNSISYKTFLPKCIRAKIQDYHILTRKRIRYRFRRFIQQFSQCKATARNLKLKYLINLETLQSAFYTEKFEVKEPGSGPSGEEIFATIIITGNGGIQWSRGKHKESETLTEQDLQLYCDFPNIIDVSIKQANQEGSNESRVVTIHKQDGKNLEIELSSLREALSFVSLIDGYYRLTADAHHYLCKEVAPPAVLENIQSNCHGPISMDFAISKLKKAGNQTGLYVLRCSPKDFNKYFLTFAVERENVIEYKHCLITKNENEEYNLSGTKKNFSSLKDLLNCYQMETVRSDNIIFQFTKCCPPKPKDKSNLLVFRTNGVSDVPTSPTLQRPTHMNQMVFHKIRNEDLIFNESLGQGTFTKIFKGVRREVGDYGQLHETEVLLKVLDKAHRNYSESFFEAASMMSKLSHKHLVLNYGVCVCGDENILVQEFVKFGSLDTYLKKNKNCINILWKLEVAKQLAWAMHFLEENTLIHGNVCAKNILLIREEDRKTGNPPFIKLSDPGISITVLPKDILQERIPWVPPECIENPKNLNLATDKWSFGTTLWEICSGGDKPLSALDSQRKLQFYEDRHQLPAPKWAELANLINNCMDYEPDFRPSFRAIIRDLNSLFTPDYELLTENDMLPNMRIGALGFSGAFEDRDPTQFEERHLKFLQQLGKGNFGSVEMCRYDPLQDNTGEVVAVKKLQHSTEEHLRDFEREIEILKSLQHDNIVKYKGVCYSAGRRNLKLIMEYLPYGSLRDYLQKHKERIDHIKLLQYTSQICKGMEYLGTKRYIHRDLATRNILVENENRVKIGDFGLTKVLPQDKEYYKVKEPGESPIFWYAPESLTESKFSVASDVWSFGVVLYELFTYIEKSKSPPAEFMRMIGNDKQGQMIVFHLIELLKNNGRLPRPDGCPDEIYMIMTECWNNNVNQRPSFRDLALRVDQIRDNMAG

Structure (SMILES): NC(=O)c1ccc(Nc2ncc(F)c(Nc3ccccc3)n2)cc1 [bisanilinopyrimidine (II), 5-Fluoro-N4-phenyl-N2-[4-(4-carboxamide)phenyl]pyrimidine-2,4-diamine]
- inhibition of AMPK [1]: inhibits
- inhibition of Aurora kinase A in kinase panel [2]: among the top three kinases inhibited
- ratio of Aurora kinase A to kinase B inhibition [3]: greater than alisertib
- suppression of Aurora kinase B [3]: slightly more potent suppression of Aurora kinase B than alisertib
- inhibition of JAK2 in kinase panel [4]: among the top three kinases inhibited
- solubility [5]: enhancing its solubility
- bioavailability [6]: superior bioavailability
